In brackets after ≈: the same amount, converted by molar mass. Read-outs that look alike come from different tables or passages of the source.
Experiments:
[1] = system: E. coli JW55031 (TolC Mutant); test: MIC/MBC (CLSI broth microdilution) against E. coli TolC mutant; type: cell-based; settings: Escherichia coli
Method: (§1) The minimum inhibitory concentrations (MICs) of the tested compounds and control drugs, linezolid, vancomycin, and gentamicin, were determined using the broth microdilution method according to the guidelines outlined by the Clinical and Laboratory Standards Institute (CLSI) against clinically relevant bacterial (Staphylococcus aureus, MRSA, Escherichia coli, Enterococcus faecalis and Enterococcus faecium strains. S. aureus, MRSA, E. coli, Enterococcus faecalis and Enterococcus faecium were grown aerobically overnight on tryptone soy agar (TSA) plates at 37° C. Afterwards, a bacterial solution equivalent to 0.5 McFarland standard was prepared and diluted in cation-adjusted Mueller–Hinton broth (CAMHB) (for S. aureus, MRSA, and E. coli) to achieve a bacterial concentration of about 5 × 10^5 CFU/mL. Enterococcus faecalis and Enterococcus faecium 0.5 McFarland standard solution was diluted in tryptone soy broth (TSB) to achieve a bacterial concentration of about 5 × 10^5 CFU/mL. Compounds and control drugs were added in the first row of 96-well plates and serially diluted with the corresponding media containing bacteria. Plates were then incubated as previously described. […] The minimum bactericidal concentration (MBC) was tested by spotting 4 µL from wells with no growth onto TSA plates. Plates were incubated at 37 ° C for at least 18 h before recording the MBC. The MBC was categorized as the lowest concentration that reduced bacterial growth by 99.9% [45, 46, 47].

[2] = system: E. coli BW25113 (wild-type strain); test: MIC/MBC (CLSI broth microdilution) against E. coli BW25113 wild type; type: cell-based, Escherichia coli; settings: E. coli BW25113 wild-type strain
Method: as §1

[3] = system: human colorectal cells (Caco-2); test: In vitro cytotoxicity, MTS assay; type: cell-based
Method: HSGN-237 and -238 were assayed for potential cytotoxicity against a human colorectal adenocarcinoma (Caco-2) cell line, as described previously. Briefly, tested compounds were incubated with caco-2 cells for 24 and 48 h. Then, the cells were incubated with MTS (3-(4,5-dimethylthiazol-2-yl)-5-(3-carboxymethoxyphenyl)-2-(4-sulfophenyl)-2H-tetrazolium) reagent for 4 h before measuring the absorbance values (OD490).
Figure 2 In vitro cytotoxicity assessment of HSGN-237 and -238 (tested in triplicate) against human colorectal cells (Caco-2) after (A) 24 h, and (B) 48 h, using the 3-(4,5-dimethylthiazol-2-yl)-5-(3-carboxymethoxyphenyl)-2-(4-sulfophenyl)-2H-tetrazolium (MTS) assay. Results are presented as percent viable cells relative to DMSO (negative control). Error bars represent standard deviation values. A two-way ANOVA, with post hoc Dunnet’s multiple comparisons test, determined the statistical difference between the values obtained for the compound and DMSO. Asterisks denote statistically significant differences between treatments of cells with either HSGN-237 or -238 as compared to DMSO-treated cells. The experiment was repeated 3 independent times.

[4] = system: N. gonorrhoeae strain 181; test: MIC by broth microdilution against N. gonorrhoeae strain 181; type: cell-based, Neisseria gonorrhoeae; settings: Neisseria gonorrhoeae; N. gonorrhoeae strain 181; read-out: MIC
Method: (§2) Briefly, bacteria were grown overnight on chocolate agar II at 37° C in the presence of 5% CO2. Afterwards, a bacterial suspension equivalent to 1.0 McFarland standard was prepared and diluted in brucella broth supplemented with yeast extract, neopeptone, hematin, pyridoxal, and NAD. Test agents were added in the first row of the 96-well plates and serially diluted along the plates. Plates were then incubated at 37° C in the presence of 5% CO2 for 24 h. […] Plates were then incubated at 37 ° C in the presence of 5% CO2 for 24 h. The MBC was categorized as the lowest concentration that reduced bacterial growth by 99.9% [45, 46, 47].

E. faecalis ATCC 29212 = test: MIC/MBC (CLSI broth microdilution) against E. faecalis ATCC 29212; type: cell-based; settings: Enterococcus faecalis, ATCC29212, E. faecalis ATCC 29212
Method: as §1

N. gonorrhoeae 166 = test: MIC/MBC against N. gonorrhoeae clinical isolate 166; type: cell-based; settings: Neisseria gonorrhoeae
Method: as §2

VRE. faecalis ATCC 51299 = test: MIC/MBC (CLSI broth microdilution) against VRE faecalis ATCC 51299; type: cell-based; settings: Enterococcus, VRE faecalis ATCC 51299
Method: as §1

MRSA USA300 = test: MIC/MBC (CLSI broth microdilution) against MRSA USA300; type: cell-based, methicillin-resistant Staphylococcus aureus; settings: Staphylococcus aureus, MRSA USA300
Method: as §1

[5] = system: tested bacterial strains (Table 3); test: MBC versus MIC against the panel of Gram-positive and Gram-negative pathogens; type: cell-based; settings: MBCs more than three-fold higher than MICs, strains of Table 3
Method: While the focus of these new N-(1,3,4-oxadiazol-2-yl)benzamides is towards N. gonorrhoeae, we proceeded to test their activity against other Gram-positive and Gram-negative pathogens. Intriguingly, HSGN-235, HSGN-237, and HSGN-238 had potent activity against the tested Gram-positive bacterial pathogens. For instance, all three compounds had potent activity against the staphylococcal strains, with MICs ranging from 0.25 to 1 µg/mL (Table 3). Furthermore, HSGN-235, HSGN-237, and HSGN-238 maintained potent activity against clinically relevant Gram-positive bacterial pathogens such as vancomycin-resistant enterococci (VRE) and Listeria monocytogenes (Table 3). Additionally, we moved to test if HSGN-235, HSGN-237, and HSGN-238 were active against other Gram-negative bacterial pathogens. […] This lack of activity against Gram-negative bacteria appears to be due to HSGN-235, HSGN-237, and HSGN-238 being a substrate for efflux.
The minimum inhibitory concentrations (MICs) of the tested compounds and control drugs, linezolid, vancomycin, and gentamicin, were determined using the broth microdilution method according to the guidelines outlined by the Clinical and Laboratory Standards Institute (CLSI) against clinically relevant bacterial (Staphylococcus aureus, MRSA, Escherichia coli, Enterococcus faecalis and Enterococcus faecium strains. S. aureus, MRSA, E. coli, Enterococcus faecalis and Enterococcus faecium were grown aerobically overnight on tryptone soy agar (TSA) plates at 37° C. Afterwards, a bacterial solution equivalent to 0.5 McFarland standard was prepared and diluted in cation-adjusted Mueller–Hinton broth (CAMHB) (for S. aureus, MRSA, and E. coli) to achieve a bacterial concentration of about 5 × 10^5 CFU/mL. Enterococcus faecalis and Enterococcus faecium 0.5 McFarland standard solution was diluted in tryptone soy broth (TSB) to achieve a bacterial concentration of about 5 × 10^5 CFU/mL. Compounds and control drugs were added in the first row of 96-well plates and serially diluted with the corresponding media containing bacteria. […]

VRE. faecalisATCC 51575 = test: MIC/MBC (CLSI broth microdilution) against VRE faecalis ATCC 51575; type: cell-based; settings: Enterococcus, VRE faecalis ATCC 51575
Method: as §1

[6] = system: panel drug-resistant pathogenic N. gonorrhoeae strains; test: MIC/MBC against a panel of drug-resistant N. gonorrhoeae strains; type: cell-based, Neisseria gonorrhoeae; settings: MBC the same as or one-fold higher than MIC
S. aureus ATCC 25923 = test: MIC/MBC (CLSI broth microdilution) against S. aureus ATCC 25923; type: cell-based; settings: Staphylococcus aureus, ATCC25923, S. aureus ATCC 25923
Method: as §1

N. gonorrhoeae WHO L = test: MIC/MBC against N. gonorrhoeae WHO L reference strain; type: cell-based; settings: Neisseria gonorrhoeae
Method: as §2

VRE. faecium ATCC 700221 = test: MIC/MBC (CLSI broth microdilution) against VRE faecium ATCC 700221; type: cell-based; settings: Enterococcus, VRE faecium ATCC 700221
Method: as §1

N. gonorrhoeae 194 = test: MIC/MBC against N. gonorrhoeae clinical isolate 194; type: cell-based; settings: Neisseria gonorrhoeae
Method: as §2

N. gonorrhoeae = test: MIC against N. gonorrhoeae in presence of fetal bovine serum; type: cell-based; settings: Neisseria gonorrhoeae, 24 h
N. gonorrhoeae 197 = test: MIC/MBC against N. gonorrhoeae clinical isolate 197; type: cell-based; settings: Neisseria gonorrhoeae
Method: as §2

[7] = system: L. monocytogenes ATCC 19115; test: MIC/MBC (CLSI broth microdilution) against L. monocytogenes ATCC 19115; type: cell-based; settings: Listeria monocytogenes, ATCC19115, L. monocytogenes ATCC 19115
N. gonorrhoeae 200 = test: MIC/MBC against N. gonorrhoeae clinical isolate 200; type: cell-based; settings: Neisseria gonorrhoeae
Method: as §2

N. gonorrhoeae 165 = test: MIC/MBC against N. gonorrhoeae clinical isolate 165; type: cell-based; settings: Neisseria gonorrhoeae
Method: as §2

Caco-2 bilayers = test: Caco-2 bidirectional permeability assay; type: in vitro ADME, human; settings: Caco-2 permeability classification
Description: Oral bioavailability is a highly important consideration when developing bioactive molecules as therapeutic agents. A critical factor of oral bioavailability is human intestinal absorption. The Caco-2 bidirectional permeability assay is the most widely used in vitro model for predicting if a bioactive molecule can have adequate systemic absorption. Thus, we selected HSGN-238 to act as a model to analyze the drug-like properties of newly synthesized N-(1,3,4-oxadiazol-2-yl)benzamides.
Assay and data analysis were performed by Eurofins Panlabs (MO, USA) according to a previously reported protocol. The apparent permeability coefficient (Papp) of the tested agents was calculated using the equation below: Papp(cm/s)=VR∗CR,end/Δt∗1/A∗(CD,mid−CR,mid), where VR is the volume of the receiver chamber. CR,end is the concentration of the test compound in the receiver chamber at the end time point, Δt is the incubation time, and A is the surface area of the cell monolayer. CD,mid is the calculated mid-point concentration of the test compound in the donor side, which is the mean value of the donor concentration at 0 minutes and the donor concentration at the end time point. CR,mid is the mid-point concentration of the test compound in the receiver side, which is one half of the receiver concentration at the end time point. Concentrations of the test compound were expressed as peak areas of the test compound.

SMILES: O=C(Nc1nnc(-c2cccc(F)c2)o1)c1ccc(OC(F)(F)F)cc1 [HSGN-237, N-(5-(3-Fluorophenyl)-1,3,4-oxadiazol-2-yl)-4-(trifluoromethoxy)benzamide]
- MBC [1]: 16 µg/mL (≈ 43.6 µM)
- MIC [1]: 0.25 µg/mL (≈ 0.681 µM)
- MIC [2]: >8 µg/mL
- MBC ([2]; Escherichia coli, read-out: MBC): > 8 µg/mL
- MIC ([2]; Escherichia coli, read-out: MIC): > 8 µg/mL
- non-toxic concentration ([3]; Caco-2 cells, 24 and 48 h, MTS assay): higher than 64 µg/mL
- non-toxic concentration relative to MIC against N. gonorrhoeae ([3]; Caco-2 non-toxic concentration versus corresponding MIC): 512 times
- MIC [4]: 0.125 µg/mL (≈ 0.34 µM)
- MBC (E. faecalis ATCC 29212; read-out: MBC): > 64 µg/mL
- MIC (E. faecalis ATCC 29212; read-out: MIC): 1 µg/mL (≈ 2.72 µM)
- MBC (N. gonorrhoeae 166): 0.06 µg/mL (≈ 0.163 µM)
- MIC (N. gonorrhoeae 166): 0.06 µg/mL (≈ 0.163 µM)
- MBC (VRE. faecalis ATCC 51299; read-out: MBC): 16 µg/mL (≈ 43.6 µM)
- MIC (VRE. faecalis ATCC 51299; read-out: MIC): 0.5 µg/mL (≈ 1.36 µM)
- MBC (MRSA USA300; read-out: MBC): 32 µg/mL (≈ 87.1 µM)
- MIC (MRSA USA300; read-out: MIC): 0.25 µg/mL (≈ 0.681 µM)
- type of activity from MBC versus MIC [5]: bacteriostatic agents
- MBC (VRE. faecalisATCC 51575; read-out: MBC): > 64 µg/mL
- MIC (VRE. faecalisATCC 51575; read-out: MIC): 1 µg/mL (≈ 2.72 µM)
- type of activity from MBC versus MIC [6]: bactericidal activity
- MBC (S. aureus ATCC 25923; read-out: MBC): > 64 µg/mL
- MIC (S. aureus ATCC 25923; read-out: MIC): 0.25 µg/mL (≈ 0.681 µM)
- MBC (N. gonorrhoeae WHO L): 0.06 µg/mL (≈ 0.163 µM)
- MIC (N. gonorrhoeae WHO L): 0.06 µg/mL (≈ 0.163 µM)
- MBC (VRE. faecium ATCC 700221; read-out: MBC): 8 µg/mL (≈ 21.8 µM)
- MIC (VRE. faecium ATCC 700221; read-out: MIC): 0.5 µg/mL (≈ 1.36 µM)
- MBC (N. gonorrhoeae 194): 0.06 µg/mL (≈ 0.163 µM)
- MIC (N. gonorrhoeae 194): 0.03 µg/mL (≈ 0.0817 µM)
- MIC (N. gonorrhoeae; 1% FBS added to the media): 0.125 µg/mL
- MIC (N. gonorrhoeae; 5% FBS added to the media): 1 µg/mL
- MIC (N. gonorrhoeae; 10% FBS added to the media): 4 µg/mL
- MBC (N. gonorrhoeae 197): 0.06 µg/mL (≈ 0.163 µM)
- MIC (N. gonorrhoeae 197): 0.03 µg/mL (≈ 0.0817 µM)
- MBC ([7]; read-out: MBC): 64 µg/mL (≈ 174 µM)
- MIC ([7]; read-out: MIC): 0.5 µg/mL (≈ 1.36 µM)
- MBC (N. gonorrhoeae 200): 0.06 µg/mL (≈ 0.163 µM)
- MIC (N. gonorrhoeae 200): 0.06 µg/mL (≈ 0.163 µM)
- MBC (N. gonorrhoeae 165): 0.125 µg/mL (≈ 0.34 µM)
- MIC (N. gonorrhoeae 165): 0.06 µg/mL (≈ 0.163 µM)

SMILES: CNC(=C[N+](=O)[O-])NCCSCc1ccc(CN(C)C)o1 [Ranitidine]
- Notes (permeability class) (Caco-2 bilayers): Low Permeability Control

Source: PMC7957578, “N-(1,3,4-Oxadiazol-2-yl)Benzamides as Antibacterial Agents against Neisseria gonorrhoeae” (International Journal of Molecular Sciences, 2021)
